Test [1] has as its system corpus circular muscle preparations. Briefly: Motility: contractile force of corpus circular muscle preparations in organ bath. The format is cell-based, guinea pig.
In test [2] the test system is distal colon mucosa/submucosa preparations. The test can be described thus: Ussing chamber: short circuit current (chloride ion secretion) across colonic mucosa/submucosa preparations. Type of test: cell-based, guinea pig.

“Also recorded” adds a separate entry of the source.

Take `CN1[C@@H]2CC[C@H]1C[C@@H](OC(=O)C(CO)c1ccccc1)C2` (stereo partly drawn) [atropine]: the “Effect of atropine pre-treatment on muscle contraction stimulated by ACH and extracts” value in test [1] is listed as “completely abrogated stimulation; also recorded: completely abolished”. Moreover, in test [2], the “Effect of atropine applied mucosally on secretion stimulated by ACH applied serosally” value is “secretion was inhibited”; the “Effect of atropine applied on mucosal side on secretion stimulated from the mucosal side” value was “only partially inhibiting ACH activity; also recorded: not mucosally”; the “Effect of atropine applied on serosal side on secretion stimulated from the mucosal side” value is listed as “significantly inhibited; also recorded: completely abrogated secretion”; the “Effect of atropine pre-treatment on secretion stimulated by ACH and extracts” value is listed as “completely abolished the response; also recorded: completely abrogated secretion stimulation”.
With `NC1=N[C@H](O)[C@H]2[C@H]3O[C@]4(O)O[C@@H]([C@@H](O)[C@@]2(N1)[C@@H]4O)[C@]3(O)CO` [TTX, Tetrodotoxin], the “Effect of TTX pre-treatment on muscle contraction stimulated by ACH and extracts” value in test [1] is “no significant effect”.

The values are drawn from patent US10912818B2, “Use of microorganisms for the prevention and treatment of intestinal diseases” (Ludwig Stocker Hofpfisterei GmbH, priority 2013, dated 2021).
